Test results reported in patent US20170202939A1, “PERSONALIZED CANCER VACCINES AND METHODS THEREFOR” (Washington University, priority 2014, published 2017).
No end group written: not given here.

B1: AKAP13 Q285K AAS peptide KLMNIQQKL (MEL38) (peptide)
peptide: KLMNIQQKL
notes: Synthetic nonamer carrying a tumor amino acid substitution
B2: MRPS17 P167L AAS peptide VLLRALPVL (MEL218) (peptide)
peptide: VLLRALPVL
notes: as for B1
B3: UTRN Q1058K AAS peptide QLDKCSAFV (MEL38) (peptide)
peptide: QLDKCSAFV
notes: as for B1
B4: SRP9 I64M AAS peptide IMAHCILDL (MEL218) (peptide)
peptide: IMAHCILDL
notes: as for B1
B5: OR8B3 T190I AAS peptide QLSCISTYV (MEL38) (peptide)
peptide: QLSCISTYV
notes: as for B1
B6: LARP7 N515D AAS peptide AVIDAYTEI (MEL218) (peptide)
peptide: AVIDAYTEI
notes: as for B1
B7: TMEM48 F169L AAS peptide CLNEYHLFL (MEL21) (peptide)
peptide: CLNEYHLFL
notes: as for B1
B8: GPX8 L27P AAS peptide LLSIVPCTV (MEL21) (peptide)
peptide: LLSIVPCTV
notes: as for B1
B9: PABPC1 R520Q AAS peptide MLGEQLFPL (MEL218) (peptide)
peptide: MLGEQLFPL
notes: as for B1
B10: SEC24A P469L AAS peptide FLYNLLTRV (MEL38) (peptide)
peptide: FLYNLLTRV
notes: as for B1
B11: HSD17B7 H108Y AAS peptide YISKCWDYA (MEL38) (peptide)
peptide: YISKCWDYA
notes: as for B1
B12: SMOX K499N AAS peptide KLANPLPYT (MEL218) (peptide)
peptide: KLANPLPYT
notes: as for B1
B13: ARFGEF1 F1637L AAS peptide QTIDNIVFL (MEL21) (peptide)
peptide: QTIDNIVFL
notes: as for B1
B14: PHKA2 S264F AAS peptide LLSIIFFPA (MEL21) (peptide)
peptide: LLSIIFFPA
notes: as for B1

How the values were obtained:
[1] = system: neoantigen-specific CD8+ T cells; test: immune monitoring of vaccinated patients, HLA/peptide dextramer (tetramer) assay on cultured PBMC; assay type: in vivo, human; conditions: for Immunogenicity: AAS-directed CD8+ T cell response in vaccinated patient; for Spontaneous Immunity: pre-vaccine (naturally-occurring) CD8+ T cell response, immune monitoring assay
Description: Immunologic monitoring (Examples 1-10). Immunologic analysis to evaluate the kinetics and magnitude of T cell response to gp100 peptides was performed using PBMCs collected weekly (prior to vaccination and until week 21. Fresh PBMCs obtained by Ficoll-Hypaque gradient centrifugation were adjusted to 2×10^6 cells/ml in Stemline media (Sigma-Aldrich) containing 5% human AB-serum, and dispersed at 1 ml/well in 24-well plates. Cultures were set up for the gp100 peptides and the CMV pp65 peptide (positive peptide control). Cultures were pulsed with 40 μg/ml peptide and 50 U/ml IL-2 fed starting at 48 hours and every other day thereafter. On day 12 (peak of response; the inventors' unpublished observation), cultures were harvested, counted, and stained for flow cytometry analysis. To assess the antigen-specific T cell frequency, cells were stained with HLAA*0201/peptide tetramers (Beckman Coulter) for 30 minutes at room temperature, followed by addition of FITC-conjugated CD4, CD14, CD19, and CD56 and allophycocyanin-conjugated CD8 (Invitrogen) for 15 minutes at 4° C. Cells were washed and resuspended in FACS buffer, and 7AAD was added 5 minutes before analysis. Control CMV pp65-specific CD8+ T cells were detected in all CMV-seropositive patients before and after immunization. A negative HLA-A*0201/HIV gag peptide tetramer control was included. 25,000 events in the CD8+ gate were collected using a hierarchical gating strategy that included FSC/SSC and excluded 7AAD+ (dead) cells and CD4+CD14+CD19+CD56+ cells. Data were acquired and analyzed using Flow-Jo software.
To examine the kinetics and magnitude of T cell immunity to AAS peptides upon vaccination, peripheral blood mononuclear cells (PBMC) were collected prior to vaccination and weekly thereafter. The CD8+ T cell response to each peptide was analyzed using a HLA-A*02:01/AAS-peptide dextramer assay after a single round of in vitro stimulation. FIG. 30A illustrates kinetics of immune responses to neoantigens. Time is recorded in weeks (0 indicates pre-vaccination). Culture conditions and staining details are described infra. Antigen-specific numbers were calculated based on dextramer percentage and total live cell yields. Immunologic analysis to evaluate the kinetic and magnitude of T cell response to AAS-encoding and gp100-derived peptides was performed using PBMC collected weekly, starting before DC vaccination (Pre-vaccine in the figures) as described (Carreno, B. M., et al., J. Clin. Invest., 123, 3383-3394, 2013). Briefly, fresh PBMC obtained by Ficoll-Paque PLUS gradient centrifugation were cultured with 40 ug/mL peptide and IL-2 (50 U/mL). On day 10 (peak of response, unpublished data, labeled “Post-Vaccine” in the figures), neoantigen specific T cell frequencies were determined by staining with HLA-A*02:01/peptide dextramers (Immudex), followed by addition of FITC-CD4, -CD14, -CD19 (Invitrogen) and ALEXA® 488-CD56 (BD Pharmigen), APC-CD8 (Invitrogen). Cells were washed, resuspended in FACS buffer containing 7AAD. Twenty five thousand events in the CD8+ gate were collected using a hierarchical gating strategy that included FSC/SSC and excluded 7AAD-positive (dead cells) and CD4/14/19/56-positive cells. PBMC/CD8+ T cells derived from an unrelated HLA-A*02:01 patient were used as negative controls for assessing specificity of HLA-A*02:01/AAS-peptide dextramers (data not shown). Data were acquired and analyzed using Flow-Jo software. […] FIG. 30B illustrates the frequency of neoantigen specific T cells in CD8+ populations isolated directly from PBMC samples and after ex-vivo expansion using autologous DC and artificial antigen presenting cells. For dominant neoantigens TMEM48 F169L, SEC24A P469L and EXOC8 Q656, results are shown for samples obtained before vaccination (Pre-vaccine) and after 3 vaccine doses (Post-vaccine). For remaining neoantigens, results obtained with post-vaccine PBMC samples are shown. […]

HLA-A*02:01 [2] = target: T1, HLA-A*02:01 (Homo sapiens, UniProt P04439, D140Y/D185E/D98H/E176V/E277Q/G131W/G231S/I119V/I121R/I166T/I218V/L300P/L318F/N151K/N90K/P208A/P217A/Q86G/Q94H/R138H/R169H/T345S); test: fluorescence polarization-based competitive peptide binding assay; conditions: fluorescence polarization-based competitive peptide-binding assay; high affinity log(IC50; nM) <3.7; read-out: Experimental Affinity log(IC50) (converted)
T1 construct: purchased Pure Protein, L.L.C

HLA-A*02:01 [3] = target: T2, HLA-A*02:01 (human); test: fluorescence polarization-based competitive peptide-binding assay
T2 construct: The form of the HLA molecule in the fluorescence polarization assay is not described; also called HLA-A2

Row | Molecule | Immunogenicity [1] | Spontaneous Immunity [1] | IC50 (HLA-A*02:01 [2]) [nM] | log(IC50, nM) (HLA-A*02:01 [3]) | also measured
1 | KLANPLPYT | No | No | 5370 |  | 
2 | LLSIIFFPA | No | No | 7940 |  | 
3 | YISKCWDYA | No | No | 19100 |  | 
4 | QLDKCSAFV | No | No | 2290 |  | 
5 | CLFPQTLAA | No | No | 3390 |  | 
6 | QTIDNIVFL | No | No | 1550 |  | 
7 | IIGAGPAEV |  |  | 6610 |  | 
8 | AVIDAYTEI | No | No | 25700 |  | 
9 | HLYASLSRV |  |  | 1910 |  | 
10 | VLLRALPVL | No | No | 1120 |  | 
11 | FVSALCMFL | No | No |  |  | 
12 | LLSIVPCTV | No | No | 1230 |  | 
13 | IMAHCILDL | No | No | 10500 |  | 
14 | G280-9V: HLA-A*0201-restricted gp100 melanoma antigen-derived peptide, positive control for vaccination [reference compound] |  |  |  |  | T cell response upon vaccination ([1]; post-vaccine PBMC, dextramer assay): enhanced in patients MEL21 and MEL218 and revealed in patient MEL38; pre-existing (naturally occurring) T cell immunity ([1]; pre-vaccine PBMC samples after in vitro stimulation): Two (MEL21 and MEL218) of the three patients had pre-existing immunity
15 | B1 |  |  |  | 3.07 log(IC50, nM) | 
16 | B2 |  |  |  | 3.05 log(IC50, nM) | 
17 | B3 |  |  |  | 3.36 log(IC50, nM) | 

Row | Molecule | Immunogenicity [1] | Spontaneous Immunity [1] | IC50 (HLA-A*02:01 [2]) [nM] | log(IC50, nM) (HLA-A*02:01 [3]) | also measured
18 | B4 |  |  |  | 4.02 log(IC50, nM) | 
19 | B5 |  |  |  | 3.1 log(IC50, nM) | 
20 | IILVAVPHV [EXOC8 Q656P AAS peptide IILVAVPHV (MEL218)] |  |  |  | 3.06 log(IC50, nM) | 
21 | CLFPQTLAA [PRKCDBP S153F AAS peptide CLFPQTLAA (MEL38)] |  |  |  | 3.53 log(IC50, nM) | 
22 | HLYASLSRV [MRPS5 P59L AAS peptide HLYASLSRV, anchor-modified at P9 (MEL218)] |  |  |  | 3.28 log(IC50, nM) | 
23 | B6 |  |  |  | 4.41 log(IC50, nM) | 
24 | B7 |  |  |  | 3.09 log(IC50, nM) | 
25 | B8 |  |  |  | 3.09 log(IC50, nM) | 
26 | IIGAGPAEV [KDM1B G394E AAS peptide IIGAGPAEV, anchor-modified at P9 (MEL21)] |  |  |  | 3.82 log(IC50, nM) | 
27 | B9 |  |  |  | 2.35 log(IC50, nM) | 
28 | B10 |  |  |  | 2.68 log(IC50, nM) | 
29 | B11 |  |  |  | 4.28 log(IC50, nM) | 
30 | FVSALCMFL [ARFGEF1 R782C AAS peptide FVSALCMFL (MEL38)] |  |  |  | 3.18 log(IC50, nM) | 
31 | B12 |  |  |  | 3.73 log(IC50, nM) | 
32 | B13 |  |  |  | 3.19 log(IC50, nM) | 
33 | B14 |  |  |  | 3.9 log(IC50, nM) | 
34 | AMFWSVPTV [TKT R438W AAS peptide AMFWSVPTV, anchor-modified at P9 (MEL21)] |  |  |  | 2.35 log(IC50, nM) | 
